Data published in patent US11505815B2, “Compositions and methods related to non-templated enzymatic nucleic acid synthesis” (Nuclera Nucleics Ltd., priority 2017, dated 2022).

Tests used:
[1] = system: engineered terminal deoxynucleotidyl transferase; assay: Enzymatic incorporation of nucleoside 5′-triphosphates with amine-masking moieties onto a DNA primer (denaturing PAGE); type: biochemical; settings: 10 minutes at 37° C., buffer containing cobalt chloride, DNA primer with 5′-fluorophore
Procedure: FIG. 11: Enzymatic incorporation of nucleoside 5′-triphosphates with amine-masking moieties. An engineered terminal deoxynucleotidyl transferase was incubated for 10 minutes at 37° C. in an appropriate buffer containing cobalt chloride and a DNA primer with a 5′-fluorophore as well as the following nucleoside 5′-triphosphates: (A) Lane 1: No extension control; Lane 2: N6-benzyl-dATP; Lane 3: N6-benzyl-rATP; Lane 4: N6-methyl-dATP; Lane 5: N6-methyl-rATP; (B) Lane 1: No extension control; Lane 2: 3′-O-acetyl-N4-benzoyl-dCTP; (C) Lane 1: No extension control; Lane 3: N6-benzoyl-dATP; Lane 4: N4-benzoyl-dCTP. Reactions were analyzed by standard denaturing polyacrylamide gel electrophoresis (TBE buffer) and imaged with a fluorescent scanner.

[2] = Deamination time course in sodium nitrite / sodium acetate pH 5.5, analysed by LC-MS; type: physicochemical; settings: sodium nitrite (700 mM), pH 5.5 (1 M), room temperature; for Extent of deamination (conversion to oxidative deamination product): LC chromatograms at 260 nm
Procedure: (A) LC-MS was performed on a Bruker amaZon system, with a Synergi Polar RP column. Solvents were A (20 mM ammonium acetate, pH 4.6) and B (20 mM ammonium acetate, pH 4.6 [5%]/acetonitrile [95%]). A gradient from 5-40% B in 10 minutes was run at 0.5 mL/min. Data is shown as a series of LC chromatograms at 260 nm. The ˜2.6 min peak corresponds to 2′-deoxyadenosine and the peak at ˜1.3 min corresponds to 2′-deoxyinosine (oxidative deamination product). (B) Plot of deamination percent over time. (C) Oxidative deamination reaction shown below converting 2′-deoxyadenosine to 2′deoxyinosine.
Solvents were A (20 mM ammonium acetate, pH 4.6) and B (20 mM ammonium acetate, pH 4.6 [5%]/acetonitrile [95%]). A gradient from 5-40% B in 10 minutes was run at 0.5 mL/min. Data shown as a series of LC chromatograms at two wavelengths for each time point as labeled above. The peak at ˜4.5 min retention time corresponds with 6-azido 2′-deoxyadenosine.
(A) LC-MS was performed on a Bruker amaZon system, with a Synergi Polar RP column. Solvents were A (20 mM ammonium acetate, pH 4.6) and B (20 mM ammonium acetate, pH 4.6 [5%]/acetonitrile [95%]). A gradient from 5-25% B in 10 minutes was run at 0.4 mL/min. Data is shown as a series of LC chromatograms at 260 nm. […] (B) Plot of deamination percent over time. (C) Oxidative deamination reaction shown below converting 2′-deoxycytidine (dC) to 2′-deoxyuridine (dU).
Solvents were A (20 mM ammonium acetate, pH 4.6) and B (20 mM ammonium acetate, pH 4.6 [5%]/acetonitrile [95%]). A gradient from 5-25% B in 10 minutes was run at 0.4 mL/min. […] Data shown as a series of LC chromatograms at 260 nm.

Compound: O=C(Nc1ccn([C@H]2C[C@H](O)[C@@H](COP(=O)(O)OP(=O)(O)OP(=O)(O)O)O2)c(=O)n1)c1ccccc1 [N4-benzoyl 2′-deoxycytidine triphosphate]
- Acceptance as substrate by terminal transferase enzyme in a DNA synthesis process [1]: accepted as a substrate

Compound: CC(=O)Nc1ncnc2c1ncn2[C@@H]1O[C@H](CO)[C@@H](O)[C@H]1O [N6-acetyl A, N6-acetyl adenosine]
- Deacetylation during incubation with nitrite solution ([2]; 48 hours): minor deacetylation
- Extent of deamination (conversion to oxidative deamination product) [2]: no deamination product is detected

Compound: CC(C)=CCNc1ncnc2nc[nH]c12 [N6-dimethylallylamino purine]
- Extent of deamination (conversion to oxidative deamination product) [2]: notable absence of peaks corresponding to dA or dI

Compound: Nc1ncnc2nc[nH]c12 [adenine, reference compound]
- Extent of deamination (conversion to oxidative deamination product) [2]: occur at an appreciable rate

Compound: Nc1cc[nH]c(=O)n1 [cytosine, reference compound]
- Extent of deamination (conversion to oxidative deamination product) [2]: occur at an appreciable rate

Compound: Nc1nc2nc[nH]c2c(=O)[nH]1 [guanine, reference compound]
- Extent of deamination (conversion to oxidative deamination product) [2]: occur at an appreciable rate
